Test results reported in US6627641B1, “Antimalarial naphthylisoquinoline alkaloids and pharmaceutical compositions and medical uses thereof” (The United States of America as represented by the …, priority 1994, dated 2003).
Values after ≈ are worked out from the molar mass of the structure shown.

How the values were obtained:
[1] = test system: P. falciparum (NF54 strain, clone A149); test: In vitro 3H-hypoxanthine incorporation test with P. falciparum NF 54; type: cell-based, Plasmodium falciparum; details: NF 54, clone A149; six repeats; max. concentration 50 or 5 μg/ml
Protocol: Continuous in vitro cultures of asexual erythrocytic stages of P. falciparum (strain NF 54/64, clone A1A9) were maintained following essentially the method of Trager and Jensen (Science, 193, 673-675, 1976) at 37° C. under an atmosphere of 5% CO2, 5% O2, and 90% N2. The host cells were human erythrocytes (A or O Rh+). The culture medium was RPMI 1640 (Gibco), containing HEPES (BDH; 4.57 gL^−1), glucose (Sigma; 1.54 gL^−1), 5% NaHCO3 (Merck; 34.78 mlL^−1), and gentamycin (Merck; 8.70 mlL^−1) supplemented with 10% human plasma (A Rh+). Parasites were subinoculated every 3-4 days with initial conditions of 1% parasitemia and 1% hematocrit.
(§1) In vitro testing with P. falciparum was as follows. Each compound was dissolved in DMSO at a concentration of 20 mg ml^−1. These solutions were further diluted with physiological saline to obtain a stock solution of 500 μg ml^−1. Each test substance was applied in a series of seven, 4-fold dilutions (maximum concentrations 50 or 5 μg ml^−1). Each compound was tested in 6-fold repeats. Chloroquine was tested similarly, as a positive control.
(§2) The test protocol was performed in vitro, based upon the method of Desjardins, et al. (Antimicrobial Agents Chemother., 16, 710-715, 1979). The parasites (200 μl of a suspension with initial parasitemia of 0.5% and hematocrit of 1.5%) were incubated for 24 h in microtitre plates (Falcon MicroTest III) in hypoxanthine-free medium in the presence of 25 μl of test solution. The plates contained a negative control (6 wells with non-parasitized RBC's, no drug) and a positive control (6 wells with parasitized RBC's no drug). Thereafter, 25 μl of ^3H-hypoxanthine solution (Amersham) was added (0.5 μCi well ^−1), and the parasites were incubated for a further period of 18 h. Each well was harvested with a Cell Harvester (Nunc). The filter papers were dried for 2 h at 52° C., and their radioactivity was measured by liquid scintillation counting in Optiscint HiSafe (LKB Pharmacia).
(§3) The mean results, obtained as counts per min (cpm), were expressed as percentages of incorporation or growth inhibition. The sigmoid dose-response curve was then linearized by probit analysis with the aid of software provided by IWONL (Gent), adapted by G. Timperman and used to derive the IC50 values.

P. berghei (Anka) = test: In vitro 3H-hypoxanthine incorporation test with P. berghei (Anka); type: cell-based, Plasmodium berghei; details: Anka strain
Protocol: as §1, §2, §3
For experiments with P. berghei (Anka strain), the parasites were maintained, and the in vitro tests performed essentially the same as above, except for the following modification. In the case of tests using P. berghei, the parasites were incubated in the same conditions as for P. falciparum (above) except that the incubations were started immediately in the presence of the ^3H-hypoxanthine and for 24 hour total duration (i.e., no delay in the addition of the ^3H-hypoxanthine). As before, the incorporated radioactivity was used as a-measure for parasite growth.

[2] = test system: P. falciparum (K1 strain); test: In vitro 3H-hypoxanthine incorporation test with chloroquine-resistant P. falciparum K1; type: cell-based, Plasmodium falciparum
Protocol: Selected compounds were also tested against drug-resistant parasites. The method was the same as above except for the following modifications. The parasite used was the chloroquine-resistant strain, K1, maintained essentially according to Desjardins, et al. (supra, 1979). The culture medium was RPMI-1640 containing TES (Sigma; 7.64 gL^−1), glucose (BDH; 1.67 gL^−1), NaHCO3 (BDH; 1.94 gL^−1), and gentamycin (Nicholas; 30 mgL^−1) supplemented with 10% human serum (A RH+). Parasites were subinoculated every 3-4 days with initial conditions of 1% parasitemia and 2.5% hematocrit. For the testing, small aliquots of test material were dissolved in 20 μl EtOH and RPMI 1640 to give solutions of 1 or 10 mg ml^−1. Each was applied in a series of twelve, […] dilutions (final […] ranging from 50 to 1.19×10^−3 μg ml^−1). Chloroquine diphosphate (Sigma) was used in the same experiments as a reference and also in twelve, 4-fold dilutions (final concentrations 2×10^−5-1.19×10^−12M). Each compound was tested in duplicate.
Testing was performed in vitro based upon the method of Desjardins, et al (supra, 1979), as modified by O'Neill, et al. (Planta Med., 51, 394-399, 1985) and Ekong, et al. (Biochem. Pharmacol., 40, 297-301, 1990). The parasites (50 μl initial parasitemia of 1%, hematocrit of 5%) were incubated for 24 h in microtitre plates (Nunc) in normal (not hypoxanthine-depleted) medium in the presence of 50 μl of test solution. Controls were set up in each test by preparing 12-24 wells with non-parasitized RBC's and no test solution and 12-24 wells with parasitized RBC's and no test compound. Thereafter, 5 μl all of ^3H-hypoxanthine (Amersham) were added (0.2 μCi well ^−1), and the parasites incubated for a further period of 18 h. Each well was harvested with a Cell Harvester (Skatron). Glass fibre filters were dried briefly. Radioactivity was measured by liquid scintillation counting in Ecoscint (National Diagnostics).
The results obtained as cpm were expressed as percentages of incorporation of growth inhibition. The dose-related part of the sigmoidal curves obtained were linearized by regression analysis with the aid of software developed by S. Grant (I.SHTM) and used to calculate the IC50 values.

[3] = test system: Plasmodium berghei (Anka strain); test: In vivo antimalarial test in OF1 mice inoculated with P. berghei; details: 50 mg/kg oral on days 0, 1, 2, 3; OF1 mice; N=6
Protocol: Outbred, female, six-week-old OF1 mice (six mice per group treated and nontreated [control]) were inoculated intraperitoneally on day 0 with 10^6 P. berghei (Anka strain) blood forms. Two hours later, they were administered orally 50 mg/kg of dioncopeltine A or dioncophylline B. A second, third, and fourth treatment (50 mg/kg each) was given after 24, 48 and 72 h, respectively (days 1, 2, and 3). […] The parasitemia (%) in the control (not drug-treated) group was 3.50 (range 3.02-3.97; N=6). In the dioncopeltine A treated group, the parasitemia was 0.03 (range 0.01-0.06; N=6); in the dioncophylline B treated group, the parasitemia was […] (range 0.66-3.07; N=6).
The in vivo antimalarial testing was performed as described above, except that more doses and different treatment schedules were employed, as described in Tables 3 and 4.

## 7-epi-dioncophylline A
[1]
  IC50 P. falciparum NF54 strain: 0.190 µg/mL

## 6-O-demethyl-8-O-methyl-7-epi-ancistrobrevine C
[1]
  IC50 P. falciparum NF54 strain: 10.326 µg/mL

## N-formyl-O,O-dimethyl-dioncophylline C
[1]
  IC50 P. falciparum NF54 strain: >50 µg/mL

## COc1cccc2c(-c3ccc4c(c3O)C(C)N(C)C(C)C4)c(C)cc(OC)c12 (centres unmarked) [N-methyl-dioncophylline A]
P. berghei (Anka)
  IC50 P. berghei, Anka: 9.207 µg/mL (≈ 23.5 µM)
[1]
  IC50 P. falciparum NF54 strain: 13.637 µg/mL (≈ 34.8 µM)
[2]
  IC50 P. falciparum, K1 strain: 5.749 µg/mL (≈ 14.7 µM)

## COc1cc(O)c(-c2c(C)cc(OC)c3c(OC)cccc23)c2c1[C@H](C)N[C@@H](C)C2 [Hamatine]
P. berghei (Anka)
  IC50 P. berghei, Anka: 5.565 µg/mL (≈ 13.7 µM)
[1]
  IC50 P. falciparum NF54 strain: 3.338 µg/mL (≈ 8.19 µM)

## COc1cc(C)cc2ccc(-c3ccc4c(c3O)[C@@H](C)N[C@H](C)C4)c(O)c12 [Dioncophylline B]
P. berghei (Anka)
  IC50 P. berghei, Anka: 0.228 µg/mL (≈ 0.627 µM)
[3]
  Parasitemia (%) from blood smears at day 4: 1.86%
[1]
  IC50 P. falciparum NF54 strain: 0.224 µg/mL (≈ 0.616 µM)
[2]
  IC50 P. falciparum, K1 strain: 0.063 µg/mL (≈ 0.173 µM)

## Ancistrobrevine D
P. berghei (Anka)
  IC50 P. berghei, Anka: 6.069 µg/mL
[1]
  IC50 P. falciparum NF54 strain: 12.222 µg/mL
[2]
  IC50 P. falciparum, K1 strain: 10.440 µg/mL

## N-formyl-ancistrocladine
[1]
  IC50 P. falciparum NF54 strain: 8.129 µg/mL

## N-formyl-dioncophylline C
[1]
  IC50 P. falciparum NF54 strain: 3.132 µg/mL

## COc1cc(C)cc2c(-c3c(O)cc(O)c4c3C[C@@H](C)N[C@@H]4C)cc(-c3cc(-c4c(O)cc(O)c5c4C[C@@H](C)N[C@@H]5C)c4cc(C)cc(OC)c4c3O)c(O)c12 [Michellamine A]
P. berghei (Anka)
  IC50 P. berghei, Anka: >50 µg/mL
[1]
  IC50 P. falciparum NF54 strain: 46.957 µg/mL (≈ 62 µM)

## COc1c(C)nc(C)c2c(OC)c(-c3c(C)cc(OC)c4c(OC)cccc34)ccc12 [(±)-dioncophyllacine A]
[1]
  IC50 P. falciparum NF54 strain: 17.571 µg/mL (≈ 42.1 µM)
